For 16 molecules, Activity results are on record in ChEMBL document CHEMBL5154864, “Design, synthesis and biological evaluation of novel nitric oxide donors with antioxidative activity” (Eur J Med Chem, 2022).

Calls of active or inactive are those of the source. No cut-off for these calls is given here.

For data set [1], the system named is HUVEC. In words: Effect on intracellular NO production in HUVEC cells assessed as increase in NO level at 5 uM incubated for 24 hrs by inverted microscopic analysis. It counts as functional, cell-based. The settings on record: Homo sapiens.
In data set [2] the test system is HUVEC. In words: Induction of oxidative stress in HUVEC cells assessed as increase in intracellular ROS level at 5 uM incubated for 24 hrs by DCHF staining based inverted microscopic analysis. The format is functional, cell-based. The settings on record: Homo sapiens.
Data set [3] concerns HUVEC. In words: Cytoprotective activity against TBHP induced oxidative stress in human HUVEC cells assessed as increase in cell viability at 5 uM by CCK8 assay. The format is functional, cell-based.
Another data set deals with Thoracic aorta. Description: Vasodilation activity in C57BL/6 mouse thoracic aorta assessed as relaxation of phenylephrine-induced contractions at 5 to 50 uM. It counts as functional, tissue-based. As to conditions: dose 5-50 µM.
The subject of data set [4] is Mus musculus. In words: Antihypertensive activity against C57BL/6 mouse model of Ang II-induced hypertension assessed as reduction in systolic blood pressure at 100 mg/kg/day, ip measured after 4 weeks. The format is functional, organism-based. Set-up: scale not given: the % may be the effect or the level left.
Data set [5] has as its system Mus musculus. Description: Antihypertensive activity against C57BL/6 mouse model of Ang II-induced hypertension assessed as reduction in diastolic blood pressure at 100 mg/kg/day, ip measured after 4 weeks. The format is functional, organism-based. More on the design: scale not given: the % may be the effect or the level left.
Data set [6] deals with Mus musculus. Description: Reversal of Ang II infusion-induced endothelial dysfunction in C57BL/6 mouse model assessed as relaxation of ACh-stimulated vasodilation at 100 mg/kg/day, ip measured after 4 weeks. It counts as functional, organism-based.
Data set [7] concerns Mus musculus. In words: Reversal of Ang II infusion-induced smooth muscle dysfunction in C57BL/6 mouse model assessed as relaxation of SNP-stimulated vasodilation at 100 mg/kg/day, ip measured after 4 weeks. It counts as functional, organism-based.
For data set [8], the system named is Mus musculus. Description: Antihypertensive activity against C57BL/6 mouse model of Ang II-induced hypertension assessed as reduction in thoracic arterial wall thickness at 100 mg/kg/day, ip measured after 4 weeks. It counts as functional, organism-based.
Data set [9] concerns Mus musculus. In words: Antihypertensive activity against C57BL/6 mouse model of Ang II-induced hypertension assessed as reduction in vascular ROS level at 100 mg/kg/day, ip measured after 4 weeks. The format is functional, organism-based.
The test system of data set [10] is HUVEC. In words: Cytotoxicity against HUVEC cells assessed as reduction in cell viability at 5 uM in absence of TBHP by CCK8 assay. The settings on record: human. The format is toxicity, cell-based. In general terms: Formazan colour is commonly taken as a measure of viable cells.

For the molecule “(3S,6R)-6-(nitrooxy)hexahydrofuro[3,2-b]furan-3-yl 4-(4,5-dihydro-4,4,5,5-tetramethyl-3-oxido-1H-imidazole-3-ium-1-oxyl-2-yl)benzoate”, the result in the data set on HUVEC [1] and in the data set on HUVEC [2] was Active.
For the molecule `CC1(C)CC(O)CC(C)(C)N1[O]`, the result with HUVEC [1] and in the data set with HUVEC [3] was Active.
As to “(3S,6R)-6-(nitrooxy)hexahydrofuro[3,2-b]furan-3-yl (4-(4,5-dihydro-4,4,5,5-tetramethyl-3-oxido-1H-imidazole-3-ium-1-oxyl-2-yl)naphthalen-2-yl)benzoyl)-L-prolinate”, the outcome with HUVEC [1], in the data set with HUVEC [2] and in the data set on HUVEC [3] was Active.
In the case of “2-(2'-bromo-6'-hydroxylphenyl)-4,4,5,5-tetramethylimidazoline-1-oxyl-3-oxide”, the result with HUVEC [1] was Active.
With “(3S,6R)-6-(nitrooxy)hexahydrofuro[3,2-b]furan-3-yl (4-(4,5-dihydro-4,4,5,5-tetramethyl-3-oxido-1H-imidazole-3-ium-1-oxyl-2-yl)naphthalen-2-yl)benzoyl)-D-prolinate”, the outcome in the data set on HUVEC [1], in the data set on HUVEC [3], in the data set with Thoracic aorta, in the data set on Mus musculus [6], with Mus musculus [7] and in the data set on Mus musculus [8] was Active. In the data set with Mus musculus [9], the outcome was Active. Besides, the Activity with Mus musculus [4] came to 14.8%; in the data set on Mus musculus [5] it was 14.3%.
As to “(3S,6R)-6-(nitrooxy)hexahydrofuro[3,2-b]furan-3-yl 2-(2-(4,5-dihydro-4,4,5,5-tetramethyl-3-oxido-1H-imidazole-3-ium-1-oxyl-2-yl)phenoxy)acetate”, the outcome with HUVEC [1] and in the data set on HUVEC [3] was Active.
Turning to “(3S,6R)-6-(nitrooxy)hexahydrofuro[3,2-b]furan-3-yl 2-(4-bromo-3-(4,5-dihydro-4,4,5,5-tetramethyl-3-oxido-1H-imidazole-3-ium-1-oxyl-2-yl)phenoxy)acetate”, the result with HUVEC [1], with HUVEC [3] and with Thoracic aorta was Active.
“2-(2'-bromo-5'-hydroxylphenyl)-4,4,5,5-tetramethylimidazoline-1-oxyl-3-oxide”: the outcome in the data set on HUVEC [1] was Active.
“2-(2'-hydroxylphenyl)-4,4,5,5-tetramethyl-imidazoline-1-oxyl-3-oxide”: the result with HUVEC [1] was Active.
For the molecule “2-(2-hydroxynaphthalen-1-yl)-4,4,5,5-tetramethylimidazoline-1-oxyl-3-oxide”, the outcome in the data set on HUVEC [1] was Active.
For `O=[N+]([O-])O[C@@H]1CO[C@H]2[C@@H]1OC[C@@H]2O`, the outcome in the data set with HUVEC [1], in the data set with HUVEC [2] and in the data set with Thoracic aorta was Active.
For `CC1(C)N(O)C(c2ccc(C(=O)O)cc2)=[N+]([O-])C1(C)C`, the outcome in the data set on HUVEC [1] was Active. Moreover, the Activity entry with HUVEC [10] is given as “Non-Toxic”.
As for “(3S,6R)-6-(nitrooxy)hexahydrofuro[3,2-b]furan-3-yl 2-(2-bromo-4-(4,5-dihydro-4,4,5,5-tetramethyl-3-oxido-1H-imidazole-3-ium-1-oxyl-2-yl)phenoxy)acetate”, the outcome with HUVEC [1] and in the data set with HUVEC [3] was Active.
For “2-(3'-bromo-4'-hydroxylphenyl)-4,4,5,5-tetramethylimidazoline-1-oxyl-3-oxide”, the result in the data set on HUVEC [1] was Active.
As for “(3S,6R)-6-(nitrooxy)hexahydrofuro[3,2-b]furan-3-yl 3-(4,5-dihydro-4,4,5,5-tetramethyl-3-oxido-1H-imidazole-3-ium-1-oxyl-2-yl)benzoate”, the outcome with HUVEC [1] and in the data set on HUVEC [2] was Active.
Consider “2-(4-hydroxy-3-methoxyphenyl)-4,4,5,5-tetramethylimidazoline-1-oxyl-3-oxide”, for which the result with HUVEC [1] and with HUVEC [3] was Active.
